Tests used:
Format in all cases: in vivo
[1] = test system: southern root-knot nematode (Meloidogyne incognita); experiment: Root knot index on tomato in pots with soil contaminated with southern root-knot nematode (Test Example 1); parameters: key: visual root knot index, 0 to 100%; conditions: non-treated = 100
Procedure: 1 Liter of sand soil having paddy soil sterilized by steam and sand mixed in a volume ratio of 1:1 was put into a 1/1,000,000 ha pot, and a predetermined amount of a test compound was added and mixed. Immediately after addition of the compound, 500 mL of soil contaminated with southern root-knot nematode (Meloidogyne incognita) was put in each pot and sufficiently mixed, and then seedling of tomato (cultivar: yellow pear) were transplantated. On the 33rd to 35th day after transplantation, the root knot index (0 to 100%) formed by nematode was visually determined. The test was carried out by two replications.
Further, theoretical values determined by the Colby's formula are shown in brackets ( ) in Tables.

larvae of turnip fly = experiment: Field test, damage to Daikon radish root by larvae of turnip fly (Test Example 4); conditions: 36th day after sowing
Procedure: Granules of fosthiazate and granules of clothianidin were mixed in predetermined active ingredient amounts, and the mixture was spread on the surface of soil of a field and sufficiently mixed by a small rotary. Seeds of Daikon radish were sown, and on the 36th day after sowing, the degree of damage to the root by larvae of turnip fly was examined by degree, and the damage grade was determined in accordance with the following formula. Further, theoretical values determined by the Colby's formula are shown in brackets ( ) in Table 6. Further, the combination of granules of fosthiazate and granules of imidacloprid was tested as a Comparative Example.
Degree of damage (nil: 0, low: 1, middle: 2, high: 3, enormous: 4)
Damage grade={Σ(damage grade index×number of Daikon radish investigated at each degree of damage)/(total number investigated×4)}×100

common cutworm = experiment: Control of common cutworm larvae on leaf of cabbage grown in treated soil (Test Example 3); conditions: second-instar larvae, 4th day
Source text: (§1) Control value(%)=(1−(number of parasites in treated area)/(number of parasites in non-treated area))×100
Sand soil having sand, non-sterilized soil and sterilized soil mixed in a volume ratio of 1:1:1 was put into a 1/500,000 ha pot, and predetermined amounts of test compounds were sufficiently mixed. Seedlings of cabbage (cultivar: Okina) in 3-leaf stage were transplanted and grown in a greenhouse for 11 days. Then, the fourth leaf of the cabbage was cut, and 10 second-instar larvae of common cutworm were released. On the 4th day, the number of surviving insects was examined, and the control value was determined in the same manner as in Test Example 2. The test was carried out by three replications. Further, theoretical values determined by the Colby's formula are shown in brackets ( ) in Table 5. Further, the combination of fosthiazate and imidacloprid was tested as a Comparative Example.

two-spotted spider mite = experiment: Control of two-spotted spider mite on eggplant seedlings in pots (Test Example 2); conditions: 14th day after treatment
Procedure: 1 Liter of sand soil having paddy soil sterilized by steam and sand mixed in a volume ratio of 1:1 was put into a 1/1,000,000 ha pot, and a predetermined amount of a test compound was added and mixed. Seedlings of eggplant (cultivar: Senryo No. 2) in which 30 adults of two-spotted spider mite (greenish yellow) were parasitic were transplanted and grown in a greenhouse for 5 days, and a test compound was applied to each pot. On the 14th day after treatment, the number of two-spotted spider mite parasitic in each pot was examined. The test was carried out by three replications. The test results are shown in Table 4 by the control value (%). Further, theoretical values determined by the Colby's formula are shown in brackets ( ) in Table 4.
Further, the control value (%) was calculated in accordance with the following formula.
as §1

[2] = Table 1, single compound 5000 g a.i./ha, tomato, 33rd to 35th day
[3] = single compound granules 500 g a.i/ha
[4] = single compound granules 750 g a.i/ha
[5] = single compound granules 1000 g a.i/ha
[6] = Table 2, single compound 500 g a.i./ha
[7] = Table 3, single compound 5000 g a.i./ha

Molecule `CN1COCN(Cc2cnc(Cl)s2)/C1=N\[N+](=O)[O-]` [thiamethoxam] has a Root knot index [1, 2] of 95.7.

Molecule `CN/C(=N/CC1CCOC1)N[N+](=O)[O-]` (stereo not shown) [dinotefuran] has a Root knot index [1, 2] of 97.6.

For `O=[N+]([O-])NC1=NCCN1Cc1ccc(Cl)nc1` [Imidacloprid, imidacloprid], the Damage degree (larvae of turnip fly; [3]) was 23.2, the Damage degree (larvae of turnip fly; [4]) was 34.7 and the Damage degree (larvae of turnip fly; [5]) was 26.3. It also gave a Control value (common cutworm; single compound 156 g a.i/ha) of 6.7% and a Control value (common cutworm; single compound 313 g a.i/ha) of 13.3%.

With `CCOP(=O)(SC(C)CC)N1CCSC1=O` (stereo not shown) [fosthiazate] the Damage degree (larvae of turnip fly; single compound granules 6000 g a.i/ha, Daikon radish field) was 33.7, the Control value (common cutworm; single compound 6000 g a.i/ha) was 73.3% and the Root knot index ([1]; Table 1, single compound 750 g a.i./ha, soil mixing, tomato, 33rd to 35th day) was 35.4. For the same molecule, the Root knot index ([1]; Table 2, single compound 750 g a.i./ha) was 22.0, the Root knot index ([1]; Table 2, single compound 1500 g a.i./ha) was 5.0 and the Root knot index ([1]; Table 3, single compound 750 g a.i./ha) was 15.8. For the same molecule, the Control value (two-spotted spider mite; single compound 6000 g a.i/ha) was 98%.

With `CN/C(=N\[N+](=O)[O-])NCc1cnc(Cl)s1` [clothianidin] the Damage degree (larvae of turnip fly; [3]) was 20.0, the Damage degree (larvae of turnip fly; [4]) was 25.3 and the Damage degree (larvae of turnip fly; [5]) was 0. It also gave a Control value (common cutworm; single compound 156 g a.i/ha) of 3.3%, a Control value (common cutworm; single compound 313 g a.i/ha) of 20.0% and a Root knot index [1, 2] of 99.3. For the same molecule, the Control value (two-spotted spider mite; single compound 400 g a.i/ha) was 35%, the Control value (two-spotted spider mite; single compound 800 g a.i/ha) was 48% and the Control value (two-spotted spider mite; single compound 1500 g a.i/ha) was 22%.

`CCOc1ccc([Si](C)(C)CCCc2ccc(F)c(Oc3ccccc3)c2)cc1` [Silafluofen, silafluofen] was tested, and the Root knot index [1, 6] was 100.

`O=C(NC(=O)c1c(F)cccc1F)Nc1cc(Cl)c(F)c(Cl)c1F` [Teflubenzuron, teflubenzuron] showed a Root knot index [1, 7] of 100.

`O=C(NC(=O)c1c(F)cccc1F)Nc1ccc(Oc2ccc(C(F)(F)F)cc2Cl)cc1F` [Flufenoxuron, flufenoxuron] was tested, and the Root knot index [1, 7] was 100.

With `O=C(NC(=O)c1c(F)cccc1F)Nc1cc(Cl)c(Oc2ncc(C(F)(F)F)cc2Cl)c(Cl)c1` [Chlorfluazuron, chlorfluazuron] the Root knot index [1, 7] was 100.

`Cc1c(F)c(F)c(COC(=O)[C@@H]2[C@H](/C=C(\Cl)C(F)(F)F)C2(C)C)c(F)c1F` (racemic) [Tefluthrin, tefluthrin] gave a Root knot index [1, 6] of 100.
